Data reported in the supplement of paper PMC13380429.

Key:
Conditions in all cases: 72 h
HepG2 [1] = assay: relative viability EC50 (midpoint between 100% and the lowest measured viability); higher = less toxic
HepG2 [2] = assay: cell viability relative to DMSO; higher = less toxic
Caco-2 [3] = assay: as above
Vero E6 [4] = assay: as above
Calu-3 [5] = assay: as above
U2OS [6] = assay: as above
HepG2 [7] = assay: drug sensitivity score (DSS) for viability; higher = more toxic; extreme values may be limits of the assay
Caco-2 [8] = assay: as above
Vero E6 [9] = assay: as above
Calu-3 [10] = assay: as above
U2OS [11] = assay: as above
Caco-2 [12] = assay: relative viability EC50 (midpoint between 100% and the lowest measured viability); higher = less toxic
U2OS [13] = assay: as above
Vero E6 [14] = assay: as above
Calu-3 [15] = assay: as above

| SMILES | relative viability EC50 (HepG2 [1]) [µM] | cell viability (HepG2 [2]; 1 nM) [%] | cell viability (HepG2 [2]; 10 nM) [%] | cell viability (HepG2 [2]; 100 nM) [%] | cell viability (HepG2 [2]; 1000 nM) [%] | cell viability (HepG2 [2]; 10000 nM) [%] | cell viability (Caco-2 [3]; 1 nM) [%] | cell viability (Caco-2 [3]; 10 nM) [%] | cell viability (Caco-2 [3]; 100 nM) [%] | cell viability (Caco-2 [3]; 1000 nM) [%] | cell viability (Caco-2 [3]; 10000 nM) [%] | cell viability (Vero E6 [4]; 1 nM) [%] | cell viability (Vero E6 [4]; 10 nM) [%] | cell viability (Vero E6 [4]; 100 nM) [%] | cell viability (Vero E6 [4]; 1000 nM) [%] | cell viability (Vero E6 [4]; 10000 nM) [%] | cell viability (Calu-3 [5]; 1 nM) [%] | cell viability (Calu-3 [5]; 10 nM) [%] | cell viability (Calu-3 [5]; 100 nM) [%] | cell viability (Calu-3 [5]; 1000 nM) [%] | cell viability (Calu-3 [5]; 10000 nM) [%] | cell viability (U2OS [6]; 1 nM) [%] | cell viability (U2OS [6]; 10 nM) [%] | cell viability (U2OS [6]; 100 nM) [%] | cell viability (U2OS [6]; 1000 nM) [%] | cell viability (U2OS [6]; 10000 nM) [%] | drug sensitivity score (HepG2 [7]) | drug sensitivity score (Caco-2 [8]) | drug sensitivity score (Vero E6 [9]) | drug sensitivity score (Calu-3 [10]) | drug sensitivity score (U2OS [11]) | relative viability EC50 (Caco-2 [12]) [µM] | relative viability EC50 (U2OS [13]) [µM] | relative viability EC50 (Vero E6 [14]) [µM] | relative viability EC50 (Calu-3 [15]) [µM] |
| --- | --- | --- | --- | --- | --- | --- | --- | --- | --- | --- | --- | --- | --- | --- | --- | --- | --- | --- | --- | --- | --- | --- | --- | --- | --- | --- | --- | --- | --- | --- | --- | --- | --- | --- | --- |
| CCCC(CCC)C(=O)Nc1ccn([C@@H]2O[C@H](CO)[C@@H](O)C2(F)F)c(=O)n1 | 0.259 | 98.3 | 108 | 85 | 39.4 | 30.1 | 94.7 | 106 | 94.3 | 96.3 | 66.7 | 93.7 | 93 | 87.7 | 98.3 | 63 | 98.3 | 97.3 | 91 | 91.7 | 67.9 | 97.5 | 100 | 101 | 110 | 68.2 | 13 | 2.1 | 2 | 2.3 | 1 |  |  |  |  |
| CNC(=O)c1ccc(C)c(-n2c(C)cc(OCc3ccc(F)cc3F)c(Br)c2=O)c1 |  | 111 | 104 | 106 | 99.7 | 67.7 | 90.9 | 95.3 | 93 | 79.6 | 75.4 | 98.7 | 92 | 85.5 | 82.3 | 58.8 | 94.7 | 92.6 | 74 | 93.6 | 56.8 | 101 | 99.2 | 90.2 | 81.9 | 78.7 | 1.5 | 3.1 | 5 | 5.2 | 3.1 | > 10 | > 10 |  |  |
| Cc1ccc(/C=N/NC(=O)c2ccccc2Oc2ccccc2)o1 | > 10 | 103 | 103 | 91.7 | 94.2 | 102 | 96 | 99.6 | 100 | 95.2 | 88.7 | 97 | 101 | 98.9 | 95.6 | 93.7 |  |  |  |  |  | 106 | 97.3 | 98.1 | 93 | 98.6 | 0 | 0.1 | 0 |  | 0 | > 10 | > 10 | > 10 |  |
| Cn1ncnc1COc1nn2c(-c3cc(F)ccc3F)nnc2cc1C(C)(C)C |  |  |  |  |  |  |  |  |  |  |  |  |  |  |  |  |  |  |  |  |  |  |  |  |  |  | 0 |  | 0 | 0 | 0 |  |  |  |  |
| O=C(NCC(=O)N1CC[C@H](N[C@H]2CC[C@@](O)(c3ccc(-c4ncccn4)cn3)CC2)C1)c1cccc(C(F)(F)F)c1 | > 10 | 103 | 97.6 | 105 | 97.4 | 100 | 104 | 108 | 92.7 | 92.7 | 96.8 | 107 | 102 | 101 | 99.4 | 98.7 |  |  |  |  |  | 97.8 | 105 | 97.7 | 101 | 96.4 | 0 | 0 | 0 |  | 0 | > 10 | > 10 | > 10 |  |
| CCCCCCCN(CC)CCC[C@@H](O)c1ccc(NS(C)(=O)=O)cc1 (racemic) [ibutilide] |  |  |  |  |  |  |  |  |  |  |  |  |  |  |  |  |  |  |  |  |  |  |  |  |  |  | 0 |  | 0 | 0 | 0 |  |  |  |  |
| CCCCCCCCCCCCCCCC=O [1-hexadecanal] | > 10 | 109 | 105 | 102 | 95.8 | 97 | 104 | 98 | 85.6 | 95.2 | 108 | 106 | 98.4 | 106 | 96.5 | 102 |  |  |  |  |  | 102 | 104 | 96.3 | 104 | 97.5 | 0 | 0 | 0 |  | 0 | > 10 | > 10 | > 10 |  |
| CC(=C\c1ccc(Cl)cc1)/C(C)=N/O [AP-18] | > 10 | 103 | 95.3 | 89.6 | 101 | 107 | 99.5 | 104 | 90.4 | 98.1 | 95.7 | 104 | 106 | 102 | 105 | 99.3 |  |  |  |  |  | 100 | 106 | 97.6 | 103 | 100 | 0 | 0 | 0 |  | 0 | > 10 | > 10 | > 10 |  |
| CC(C)Nc1cc(-c2c[nH]c(C(=O)N[C@H](CO)c3cccc(Cl)c3)c2)c(Cl)cn1 [BVD-523] | 0.703 | 104 | 102 | 92.6 | 51.4 | 19.5 | 105 | 106 | 101 | 76.7 | 61.2 | 100 | 104 | 91.9 | 80.7 | 52.9 | 106 | 97.4 | 89.7 | 92.1 | 57.5 | 103 | 101 | 95.5 | 96.7 | 69.3 | 10.5 | 4.7 | 4.5 | 3.5 | 1.9 |  |  |  |  |
| NCCNS(=O)(=O)c1ccc(Cl)c2ccncc12 [CKI-7] | > 10 | 110 | 94.9 | 105 | 102 | 107 | 105 | 110 | 102 | 102 | 86.1 |  |  |  |  |  |  |  |  |  |  | 95.6 | 100 | 98.8 | 102 | 98.7 | 0 | 0.1 |  |  | 0 | > 10 | > 10 |  |  |
| Cc1c(Cl)cccc1S(=O)(=O)Nc1nc(NCCc2ccccc2)nc2c1CN(Cc1ccccc1)CC2 [CaMKII-IN-1] | > 10 | 88.3 | 97.1 | 90.6 | 101 | 93.6 | 98.9 | 96.1 | 93 | 102 | 83.1 | 95.3 | 104 | 98.2 | 97.7 | 108 |  |  |  |  |  | 102 | 102 | 105 | 98.9 | 88.7 | 0 | 0.3 | 0 |  | 0 | > 10 | > 10 | > 10 |  |
| NC(=O)c1nc(F)cnc1O [Favipiravir] | > 10 | 104 | 102 | 109 | 91.8 | 98.2 |  |  |  |  |  |  |  |  |  |  | 101 | 93.2 | 92.5 | 94.6 | 107 |  |  |  |  |  | 0 |  |  | 0 |  |  |  |  | > 10 |
| CC(C)CNc1ccnc(NCc2csc(-c3ccccc3)n2)n1 [KHS-101] | 1.92 | 104 | 102 | 95.3 | 86.4 | 16.4 | 91.3 | 103 | 98.1 | 85.2 | 53.3 | 103 | 99 | 103 | 101 | 78.1 | 94.1 | 91.6 | 101 | 89.3 | 64.8 | 99.9 | 97.9 | 102 | 97 | 72.9 | 6.9 | 4.6 | 0.7 | 3.2 | 1.6 |  |  | > 10 |  |
| CC(O)c1cc(C(=O)N[C@@H](C)Cn2ccc(-c3ccc(C#N)c(Cl)c3)n2)n[nH]1 (stereo partly specified) [ODM-201] | > 10 | 88.1 | 111 | 92.6 | 112 | 105 | 104 | 89.8 | 102 | 106 | 103 | 95.6 | 101 | 93.1 | 94.5 | 103 |  |  |  |  |  | 98.3 | 98.2 | 103 | 93.4 | 111 | 0 | 0 | 0 |  | 0 | > 10 | > 10 | > 10 |  |
| CCOC(=O)c1cc2ccc(O)cc2oc1=O [YZ9] | > 10 | 98.6 | 103 | 107 | 96.5 | 117 | 98.6 | 94.3 | 102 | 98.8 | 99.5 | 92 | 95.5 | 96.3 | 101 | 102 |  |  |  |  |  | 99.3 | 94.7 | 92.9 | 103 | 104 | 0 | 0 | 0 |  | 0 | > 10 | > 10 | > 10 |  |
| C[C@H](Nc1ncnc2[nH]cnc12)c1nc2ccc(F)cc2c(=O)n1-c1ccccc1 [acalisib] | > 10 | 106 | 107 | 109 | 93.7 | 83.6 | 105 | 104 | 91.6 | 102 | 74.9 | 104 | 101 | 95.8 | 89.9 | 76.2 | 107 | 103 | 104 | 93.8 | 65.1 | 109 | 104 | 106 | 99.4 | 94.3 | 0.9 | 0.9 | 1.5 | 2.7 | 0 |  | > 10 | > 10 |  |
| O=C(O)CCCCC(=O)O [adipic-acid] | > 10 | 104 | 108 | 94.4 | 97.4 | 105 | 89 | 87 | 95.1 | 96.6 | 105 | 94.9 | 99.9 | 89.3 | 93.1 | 102 |  |  |  |  |  | 102 | 96.7 | 99.6 | 103 | 104 | 0 | 0 | 0 |  | 0 | > 10 | > 10 | > 10 |  |
